The assay concerns the target T1, hM5 (Homo sapiens, UniProt P08912).
T1 construct: expressed in transfected cells
T1 sequence (P08912 1-532): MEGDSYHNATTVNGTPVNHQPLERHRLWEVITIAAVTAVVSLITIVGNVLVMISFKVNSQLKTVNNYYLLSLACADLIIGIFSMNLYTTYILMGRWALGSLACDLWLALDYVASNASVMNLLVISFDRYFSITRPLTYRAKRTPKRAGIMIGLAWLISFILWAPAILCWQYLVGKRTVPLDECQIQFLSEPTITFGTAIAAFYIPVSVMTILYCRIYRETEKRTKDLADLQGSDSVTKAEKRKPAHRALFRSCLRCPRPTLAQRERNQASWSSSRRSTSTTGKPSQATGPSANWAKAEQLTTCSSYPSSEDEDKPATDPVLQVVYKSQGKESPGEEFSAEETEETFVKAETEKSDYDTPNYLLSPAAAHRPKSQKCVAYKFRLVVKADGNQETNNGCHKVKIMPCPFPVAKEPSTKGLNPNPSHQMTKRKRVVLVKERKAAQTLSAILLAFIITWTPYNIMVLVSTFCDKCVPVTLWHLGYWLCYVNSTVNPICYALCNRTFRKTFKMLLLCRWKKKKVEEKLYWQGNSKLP
The experiment in a line: Calcium mobilization concentration-response (IC50 vs EC80 acetylcholine), CHO hM5. In kind it is cell-based. Particulars: CELL LINE hM5, read-out: IC50. The essentials: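 IC50 values derive from percent maximal acetylcholine response after an EC80 ACh addition, measured as kinetic calcium fluorescence (static ratio, max−min). Test compounds were added 140 s before agonist. Cells: stable hM5-CHO in HEPES-buffered HBSS with 2.5 mM probenecid, pH 7.4; ≥3 independent triplicate determinations.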
In general terms: Calcium flux is commonly read through the fluorescence of an indicator in the cells.

The mark [1] stands for this setting: calcium mobilization, EC80 acetylcholine addition.

Read-outs that look alike come from different tables or passages of the source. Bounds are passed on as bounds.

Turning to `Cc1cc2ncnn2cc1[C@@H]1CCN(S(=O)(=O)c2cnn(C)c2Cl)C[C@H]1O` (racemic) [Compound 282, (rac)-trans-1-((5-Chloro-1-methyl-1H-pyrazol-4-yl)sulfonyl-4-(7-methyl-[1,2,4]triazolo[1,5-a]pyridin-6-yl)piperidin-3-ol], the IC50 (as a rule, the concentration at which inhibition is half-maximal) under setting [1] was 103 nM.
Consider `Cn1ncc(S(=O)(=O)N2CCC(F)(c3cn4ncnc4cc3F)CC2)c1C#N` [Compound 503, 4-((4-fluoro-4-(7-fluoro-[1,2,4]triazolo[1,5-a]pyridin-6-yl)piperidin-1-yl)sulfonyl)-1-methyl-1H-pyrazole-5-carbonitrile], for which the 50% inhibitory concentration (IC50) (vs EC80 acetylcholine) turned out to be 1150 nM.
With `Cc1cc2ncnn2cc1C1CCN(S(=O)(=O)c2cn(C)cn2)CC1` [Compound 128, 7-methyl-6-(1-((1-methyl-1H-imidazol-4-yl)sulfonyl)piperidin-4-yl)-[1,2,4]triazolo[1,5-a]pyridine], the IC50 under setting [1] was 1300 nM.
Regarding `Cc1ncc(S(=O)(=O)N2CCC(c3cn4ncnc4cc3C(F)(F)F)CC2)o1` [Compound 498, 2-methyl-5-((4-(7-(trifluoromethyl)-[1,2,4]triazolo[1,5-a]pyridin-6-yl)piperidin-1-yl)sulfonyl)oxazole], where the note is “vs EC80 acetylcholine”, the concentration for half-maximal inhibition (IC50) was 496 nM.
With `[2H]C1([2H])CC(c2cn3ncnc3c(F)c2C)CC([2H])([2H])N1S(=O)(=O)c1cnc2sccn12` [Compound 537, 5-((4-(8-fluoro-7-methyl-[1,2,4]triazolo[1,5-a]pyridin-6-yl)piperidin-1-yl-2,2,6,6-d4)sulfonyl)imidazo[2,1-b]thiazole], the IC50 (vs EC80 acetylcholine) stood at 11 nM.
For the compound `[2H]C([2H])([2H])OCc1c(S(=O)(=O)N2CCC(c3cn4ncnc4cc3F)CC2)cnn1C` [Compound 441, 7-fluoro-6-(1-((5-((methoxy-d3)methyl)-1-methyl-1H-pyrazol-4-yl)sulfonyl)piperidin-4-yl)-[1,2,4]triazolo[1,5-a]pyridine], the concentration for half-maximal inhibition (IC50) (vs EC80 acetylcholine) was greater than 10000 nM.
With `Cc1c(S(=O)(=O)N2CCC(c3cn4ncnc4cc3C(=O)N(C)C)CC2)cnn1C` [Compound 471, 6-(1-((1,5-dimethyl-1H-pyrazol-4-yl)sulfonyl)piperidin-4-yl)-N,N-dimethyl-[1,2,4]triazolo[1,5-a]pyridine-7-carboxamide], the IC50 (vs EC80 acetylcholine) was greater than 10000 nM.
Regarding `O=S(=O)(c1ccc2c(c1)CCO2)N1CCC(c2nc3cccnc3s2)CC1` [Compound 12, 2-(1-((2,3-dihydrobenzofuran-5-yl)sulfonyl)piperidin-4-yl)thiazolo[5,4-b]pyridine], the IC50 under setting [1] is greater than 10000 nM.
As for `Cc1cc2ncnn2cc1C1CCN(S(=O)(=O)c2conc2C)CC1` [Compound 499, 3-methyl-4-((4-(7-methyl-[1,2,4]triazolo[1,5-a]pyridin-6-yl)piperidin-1-yl)sulfonyl)isoxazole], the IC50 (vs EC80 acetylcholine) worked out at 4510 nM.
For the compound `Cn1ncc(S(=O)(=O)N2CC=C(c3cc4c(cc3Cl)OCO4)CC2)c1Cl` [Compound 351, 1-((5-chloro-1-methyl-1H-pyrazol-4-yl)sulfonyl)-4-(6-chlorobenzo[d][1,3]dioxol-5-yl)-1,2,3,6-tetrahydropyridine], the IC50 under setting [1] was determined as 142 nM.
As to `Cc1cc2ncccc2cc1C1CCN(S(=O)(=O)c2c(C)nn(C)c2C(F)(F)F)CC1` [Compound 445, 6(1-((1,3-dimethyl-5-(trifluoromethyl)-1H-pyrazol-4-yl)sulfonyl)piperidin-4-yl)-7-methylquinoline], for the setting “vs EC80 acetylcholine”, the IC50 came out at 1950 nM.
Consider `Cc1nc2cc(C)c(C3CCN(S(=O)(=O)c4cn(C)nc4C)CC3)cn2n1` [Compound 79, 6-(1-((1,3-dimethyl-1H-pyrazol-4-yl)sulfonyl)piperidin-4-yl)-2,7-dimethyl-[1,2,4]triazolo[1,5-a]pyridine], for which the IC50 under setting [1] is greater than 10000 nM.
Consider `Cc1nc2n(c1C1CCN(S(=O)(=O)c3cnn(C)c3Cl)CC1)CCCC2` [Compound 463, 3-(1-((5-Chloro-1-methyl-1H-pyrazol-4-yl)sulfonyl)piperidin-4-yl)-2-methyl-5,6,7,8-tetrahydroimidazo[1,2-a]pyridine], for which the IC50 (vs EC80 acetylcholine) is 250 nM.
For `Cn1ncc(S(=O)(=O)N2CCC(c3cn4ncnc4cc3C(F)(F)F)CC2)c1CC#N` [Compound 410, 2-(1-methyl-4-((4-(7-(trifluoromethyl)-[1,2,4]triazolo[1,5-a]pyridin-6-yl)piperidin-1-yl)sulfonyl)-1H-pyrazol-5-yl)acetonitrile], the concentration for half-maximal inhibition (IC50) (vs EC80 acetylcholine) was determined as 204 nM.
For `Cc1cc2ncnn2cc1C1CCN(S(=O)(=O)c2ccc3c(c2)ncn3C)CC1` [Compound 189, 7-methyl-6-(1-((1-methyl-1H-benzo[d]imidazol-5-yl)sulfonyl)piperidin-4-yl)-[1,2,4]triazolo[1,5-a]pyridine], the concentration for half-maximal inhibition (IC50) under setting [1] was greater than 10000 nM.
Consider `CCc1cc2ncnn2cc1C1CCN(S(=O)(=O)c2cc(C)ns2)CC1` [Compound 493, 5-((4-(7-ethyl-[1,2,4]triazolo[1,5-a]pyridin-6-yl)piperidin-1-yl)sulfonyl)-3-methylisothiazole], for which the half-maximal inhibitory concentration (IC50) (vs EC80 acetylcholine) was 65 nM.
For `Cc1cc2ncnn2cc1C1CCN(S(=O)(=O)c2c[nH]cn2)CC1` [Compound 155, 6-(1-((1H-imidazol-4-yl)sulfonyl)piperidin-4-yl)-7-methyl-[1,2,4]triazolo[1,5-a]pyridine], under setting [1], the half-maximal inhibitory concentration (IC50) is greater than 10000 nM.
Take `Cc1c(S(=O)(=O)N2CCC(c3cn4ncnc4cc3F)CC2)cnn1C` [Compound 161, 6-(1-((1,5-dimethyl-1H-pyrazol-4-yl)sulfonyl)piperidin-4-yl)-7-fluoro-[1,2,4]triazolo[1,5-a]pyridine]: under setting [1], the IC50 worked out at 125 nM.
For the compound `Cc1cc2ncnn2nc1C1CCN(S(=O)(=O)c2cnc3sccn23)CC1` [Compound 535, 5-((4-(7-methyl-[1,2,4]triazolo[1,5-b]pyridazin-6-yl)piperidin-1-yl)sulfonyl)imidazo[2,1-b]thiazole], the IC50 (vs EC80 acetylcholine) was 133 nM.
On to `Cc1nn(C(F)F)cc1S(=O)(=O)N1CCC(c2cn3ncnc3cc2C(F)(F)F)CC1` [Compound 276, 6-(1-((1-(difluoromethyl)-3-methyl-1H-pyrazol-4-yl)sulfonyl)piperidin-4-yl)-7-(trifluoromethyl)-[1,2,4]triazolo[1,5-a]pyridine], for which the IC50 under setting [1] was greater than 10000 nM.
Turning to `[2H]C1([2H])CC(c2cn3ncnc3cc2F)CC([2H])([2H])N1S(=O)(=O)c1cc(C)ns1` [Compound 528, 5-((4-(7-fluoro-[1,2,4]triazolo[1,5-a]pyridin-6-yl)piperidin-1-yl-2,2,6,6-d4)sulfonyl)-3-methylisothiazole], under “vs EC80 acetylcholine”, the 50% inhibitory concentration (IC50) was determined as 595 nM.
As for `O=S(=O)(c1c(Cl)nc2sccn12)N1CCC(c2cn3ncnc3cc2Cl)CC1` [Compound 344, 6-chloro-5-((4-(7-chloro-[1,2,4]triazolo[1,5-a]pyridin-6-yl)piperidin-1-yl)sulfonyl)imidazo[2,1-b]thiazole], the IC50 under setting [1] was found to be 18 nM.
With `[2H]C1([2H])CC(c2cn3ncnc3cc2Cl)CC([2H])([2H])N1S(=O)(=O)c1nncn1C` [Compound 580, 7-chloro-6-(1-((4-methyl-4H-1,2,4-triazol-3-yl)sulfonyl)piperidin-4-yl-2,2,6,6-d4)-[1,2,4]triazolo[1,5-a]pyridine], the half-maximal inhibitory concentration (IC50) (vs EC80 acetylcholine) was found to be 98 nM.
On to `Cn1cc(S(=O)(=O)N2CCC(c3cn4ncnc4cc3C(F)(F)F)CC2)c(C(F)(F)F)n1` [Compound 99, 6-(1-((1-methyl-3-(trifluoromethyl)-1H-pyrazol-4-yl)sulfonyl)piperidin-4-yl)-7-(trifluoromethyl)-[1,2,4]triazolo[1,5-a]pyridine], for which the concentration for half-maximal inhibition (IC50) under setting [1] amounted to 5200 nM.

Source of the values: patent publication US20230183237A1, “COMPETITIVE AND NONCOMPETITIVE INHIBITORS OF THE MUSCARINIC ACETYLCHOLINE RECEPTOR M5” (Vanderbilt University, priority 2020, published 2023).
